In patent publication US20030129189A1, “Tumor necrosis factor-gamma” (priority 1994, published 2003):

Assays:
[1] = tested on: NRK-54E; experiment: TNF-gamma activity on NRK-54E cells; format: cell-based; set-up: key: The numbers of “+” indicate the relative level of activities.; ++: The numbers of “+” indicate the relative level of activities.; +++: The numbers of “+” indicate the relative level of activities.; “−” indicates no detected activity at the concentration range tested; conditions: rat kidney epithelial-like
[2] = tested on: HL-60; experiment: TNF-gamma activity on HL-60 cells (incl. cell adhesion); format: cell-based, human; set-up: key to Proliferation / Differentiation / Adhesion: The numbers of “+” indicate the relative level of activities.; ++: The numbers of “+” indicate the relative level of activities.; +++: The numbers of “+” indicate the relative level of activities.; “−” indicates no detected activity at the concentration range tested
Experimental: The adherent target cells were prepared from confluent cultures by trypsinization in PBS, and non-adherent target cells were harvested from stationary cultures and washed once with medium. Target cells were suspended at 3×10^5 cells/ml in medium containing 10% FCS. 0.1 ml aliquots were dispensed into 96-well flat-bottomed microtiter plates containing 0.1 ml serially diluted test samples of cells (WEHI 164 and L929). Incubation was continued for 70 hours. TNF-alpha, TNF-beta and bacterially-produced TNF-gamma were added at a 0.5 μg/ml concentration. The cytotoxicity and proliferation activity was quantified using an MTS assay performed by the addition of 20 μl of MTS and phenazine methosulfate (PMS) solution to each well. After a three hour incubation, the OD at 492 nm was measured by an ELISA plate reader. The OD492 is proportional to the number of viable cells in the wells. The percent of cytotoxicity was calculated as follows: […]. The photographs were taken after 72 hours.
To test adhesion ability of TNF-gamma, HL-60 cells were used and cell adhesion and cell-cell contact were measured by observation under the microscope and scored subjectively by two independent investigators. FIG. 11 illustrates the ability of TNF-gamma to induce cell adhesion. Cultures which were not treated with TNF-gamma contained cells which had spread throughout the culture dish.

[3] = tested on: A-431; experiment: TNF-gamma activity on A-431 cells; format: cell-based; set-up: key: The numbers of “+” indicate the relative level of activities.; ++: The numbers of “+” indicate the relative level of activities.; +++: The numbers of “+” indicate the relative level of activities.; “−” indicates no detected activity at the concentration range tested; conditions: A-431, human epidermoid carcinoma
[4] = tested on: I-kappaBa in U-937 cells; experiment: I-kappaBa degradation (Western blot); format: cell-based; conditions: 0.1-1.0 μg/ml, 12 hours
Experimental: These experiments were elaborated by determining a degradation profile for I-kappaBa in U-937 cells in response to treatment with TNF-gamma. A time course of I-kappaBa degradation was determined by Western blot analysis, a technique that is well-known by one of ordinary skill in the art and has been described by Singh and Aggarwal (J. Biol. Chem. 270:24995-25000 (1995)).

[5] = tested on: c-Jun kinase (JNK) in U-937 cells; experiment: JNK kinase activation assay; format: cell-based; conditions: 0.1 to 3.0 μg/ml
Experimental: The cellular kinase designated c-Jun kinase (JNK) is an early event in cellular activation. The activation of JNK by TNF-gamma was analyzed as an additional method of determining cellular reaction to treatment with TNF-gamma. The JNK kinase activation assay is well-known by one of skill in the art and has been described by Derijard and colleagues (Cell 76:1025-1029 (1994)). After treatment of U-937 cells with 0.1 to 3.0 μg/ml of TNF-gamma for 12 hours, the cells were harvested and assayed for JNK kinase activity. By 6 and 12 hours, JNK activity had increased 2- and 3.6-fold, respectively.

[6] = tested on: adult bovine aortic endothelial cells; experiment: Endothelial cell apoptosis; format: cell-based
[7] = HL-60, human promyelocytic leukemia

**Q.** “TNF-gamma: new member of the tumor necrosis factor family; the term refers to TNF-gamma-alpha and/or TNF-gamma-beta” was tested. Which Adhesion [1] did it give?
**A.** −−

**Q.** And the Differentiation [1]?
**A.** −−

**Q.** And the Proliferation [1]?
**A.** −

**Q.** And the Adhesion [2, 7]?
**A.** ++

**Q.** And the Differentiation [2, 7]?
**A.** −

**Q.** What about the Proliferation [2, 7] of the same substance?
**A.** −

**Q.** What about the “cell adhesion and cell-cell contact” value ([2]; HL-60 cells, observation under the microscope (FIG. 11)) of the same substance?
**A.** clearly aggregated together

**Q.** And the Adhesion [3]?
**A.** −−

**Q.** What about the Differentiation [3] of the same substance?
**A.** −−

**Q.** And the Proliferation [3]?
**A.** −

**Q.** And the I-kappaBa degradation [4]?
**A.** completely degraded

**Q.** What about the “increase in JNK activity” value ([5]; by 6 hours) of the same substance?
**A.** 2 fold

**Q.** What about the “increase in JNK activity” value ([5]; by 12 hours) of the same substance?
**A.** 3.6 fold

**Q.** What about the apoptosis [6] of the same substance?
**A.** induces apoptosis
